Marks after values point to notes of the source that are not given here.
How the values were obtained:
C57BL/6 mice = experiment: In vivo pharmacodynamic study: hair growth scoring in shaved telogen-phase mice; settings: for Score (mean±SD): hair growth score 0-5, 0.5 wt% applied to shaved area twice daily
From the text: Vehicle: propylene glycol/ethanol (30:70, v/v)
Animal information: C57BL/6 mice (male, aged 6 weeks, about 18-20 g), purchased from Shanghai Lingchang Biotechnology Co., Ltd. The mice were bred in an SPF-level environment within independently ventilated cages. All animals had free access to a certified, commercial standard laboratory diet and drinking water.
Skin preparation: After 1-2 weeks of acclimation, the hairs in a 2 cm × 3 cm area of the back of the mice were shaved to confirm that the hairs of the mice were in the telogen phase (the skin was pink) and the skin was not damaged.
The control group received the vehicle. 12 mice were in each group.
The scoring criteria are as follows: • 0: no growth, with pink skin in the shaved area; • 1: the skin in the shaved area was gray (an increase of less than 20%); • 2: the skin in the shaved area was black (more than 20% but less than 40%); • 3: the skin in the shaved area was black with a little hair growth (more than 40% but less than 60%); • 4: the skin in the shaved area was black with partial hair growth (more than 60% but less than 80%); • 5: basically complete hair growth (80%-100% growth) in the shaved area.

AR = AR antagonistic activity: AR / PSA ARE1 luciferase reporter gene assay in transfected LNCaP cells stimulated with 1 nM DHT; assay type: cell-based; settings: 24 h, 6.7 µM
Protocol: LNCaP cells were plated in a 6-well plate (Corning, 3516) at 8 × 10^5 cells/well.
Transfection reagents Lipo 3000 and P3000 (Lipofectamine™ 3000) and AR and PSA ARE1 reporter gene plasmids (Bio (Anhui) Co., Ltd.) (a total of 2.5 µg of plasmids, i.e., 1.25 µg of each plasmid, were added to each well) were left to stand and incubated at room temperature for 10 min, and then 250 µL of the above transfection reagents were added dropwise to each well containing cells.
The cells were washed with PBS, and the medium was replaced with a phenol red-free RPMI-1640 medium containing 5% carbon adsorption serum. The cells were re-plated onto a 96-well plate (Corning, 3603) according to the number of cells plated (2 × 10^4 cells/well).
After cell plating, the test compound (or DMSO or positive control) was added. After at least 30 min of incubation (incubator, 37 °C, 5% CO2), DHT (dihydrotestosterone) was added to the culture system at a final concentration of 1 nM. The culture system was then incubated in a carbon dioxide incubator. The final volume of the system in the plate was 100 µL.
Test compound: 10 mM stock solution, with a final concentration of 3.3 µM or 6.7 µM. Negative control: 0.1% DMSO. Positive control: 30 µM enzalutamide.
After the test compound (or DMSO or positive control) and DHT were co-incubated for 6 or 24 h, the luciferase signal was detected using the Vazyme Bright-Lite substrate. The medium was added at 70 µL/well, and the plate was shaken for 2 min, followed by reading of the luciferase signal.
Assay robustness was confirmed using the DMSO and low concentration control data: Ave_H = Ave (DMSO) [formula] Ave_L = Ave (30000nMenzalutamide) [formula] Inhibition rate (%) = (Ave_H−Sample)/(Ave_H−Ave_L) × 100% [formula] • Ave_H: the measurement of the negative control (0.1% DMSO); • Ave_L: the measurement of the positive control (30 µM enzalutamide); • Sample: the measurement of the test compound;

[1] = mouse, in vivo
From the text: Treatment: On day 3 after shaving, the mice were grouped for treatment. […] The control group received the vehicle. 12 mice were in each group.

[2] = 5 µM
Protocol: (§1) 1 mM stock solutions of the test compounds were prepared in DMSO, and a 1 mM stock solution of the reference compound propantheline was prepared in acetonitrile.
(§2) 4 µL of test compound stock solution (or reference compound stock solution) was added to 796 µL of pre-incubated whole blood (CD-1 mouse whole blood or human whole blood) at a final concentration of 5 µM. The final concentration of the solvent was 0.5%. At different time points (including 5 min, 15 min, 30 min, 60 min, and 120 min), a 50 µL aliquot of the whole blood containing the sample was added to a new tube and incubated in a 37 °C water bath with shaking at 60 rpm. The treatment was performed in duplicate. At designated time points, 300 µL of room-temperature quenching solution (a solution of acetonitrile containing internal standards (100 nM alprazolam, 500 nM labetalol, and 2 µM ketoprofen)) was added to the whole blood sample containing the sample to terminate the reaction. 50 µL of whole blood containing the sample was added to a new tube containing 300 µL of room-temperature quenching solution to prepare a sample at 0 min. All samples were vortexed for 5 min. The samples in the plate were centrifuged at 3220 g for 30 min at 4 °C to precipitate the proteins. 100 µL of the supernatant was transferred to a new 96-well plate containing 100 µL of water for LC-MS/MS analysis.
(§3) The peak area ratio was determined by using an extracted ion chromatogram. The proportion of remaining compound at each time point was calculated according to the following formula: Remaining proportion t min (%) = peak area ratio t min / peak area ratio 0 min × 100% [formula] • Peak area ratio t min: peak area ratio of reference compound to test compound at t min; • Peak area ratio 0 min: peak area ratio of reference compound to test compound at time zero.
(§4) The slope value was determined by linear regression on the curve of the natural logarithm of the remaining proportion of the test compound versus the incubation time.
(§5) Determination of in vitro half-life (in vitro t1/2) from the slope value: in vitro t1/2 = 0.693/k [formula] in the formula, k is the rate constant (k = -slope value)

[3] = 5 µM; remark: listed apart in the source
Protocol: as §1, §2, §3, §4, §5

[4] = human, microsomes, 1 µM, pH 7.4
Protocol: The metabolic stability of compounds disclosed herein in liver microsomes was determined using the following method.
Liver microsome source: Human liver microsome (Corning, 452117) • 2. Na2HPO4 (Tianjin Guangfu Fine Chemical Research Institute, 20180130) • 3. KH2PO4 (Tianjin Guangfu Fine Chemical Research Institute, 20180920) • 4. MgCl2 (Tianjin Guangfu Fine Chemical Research Institute, 20191216) • 5. NADPH (Solarbio, 1216C022) • 6. Positive control compound: verapamil (Sigma, MKBV4993V) • 7. AB Sciex Triple Quad 4000 liquid chromatography-mass spectrometry system
Preparation of 100 mM phosphate-buffered saline (PBS): 7.098 g Na2HPO4 was dissolved in 500 mL of purified water by sonication to give solution A. 3.400 g of KH2PO4 was dissolved in 250 mL of purified water by sonication to give solution B. Solution A was placed on a stirrer, and solution B was added slowly until the pH reached 7.4, so as to give a 100 mM PBS buffer. […] Preparation of reaction system The reaction system was prepared according to the table below.
The reaction system was pre-incubated in a 37 °C water bath for 10 min. 40 µL of 10 mM NADPH solution (in 100 mM phosphate-buffered saline) was added to the reaction system, with the final NADPH concentration being 1 mM. A negative control was prepared by replacing the NADPH solution with 40 µL of phosphate-buffered saline. The negative control was used to exclude the effect of the chemical stability of the compound itself. […] The reaction was initiated by adding 4 µL of 100 µM compound disclosed herein or positive control compound verapamil to the reaction system at a final concentration of 1 µM. […] After 0.5 min, 15 min, 30 min, 45 min, and 60 min of mixing well by using a vortex oscillator, 50 µ L of the incubated sample was taken out, and glacial acetonitrile containing an internal standard of 4 folds was added to terminate the reaction. The sample was centrifuged at 3,220 g for 45 min. 90 µL of the supernatant was transferred to a feeding plate after the centrifugation was completed, and 90 µL ultrapure water was added. The mixture was well mixed for LC-MS/MS analysis.
All data were calculated by using Microsoft Excel software. The peak areas were determined by using an extracted ion chromatogram. The in vitro half-life (T1/2) of the test compound was determined by linear fitting of the natural logarithm of the elimination proportion of the test compound over time. In vitro half-life (T1/2) was calculated by the slope k: in vitro T1/2 = 0.693/k [formula]
The in vitro intrinsic clearance (in vitro CLint, unit: µL/min/mg protein) was calculated using the following formula: in vitro CLint = k × volume of incubation solution/enzyme protein content; [formula]

CC(C)OC(=O)CCCC(C)(O)C(=O)Nc1cnc(C#N)c(C(F)(F)F)c1 (single isomer, unassigned) [Compound 010]
Score (mean±SD) (C57BL/6 mice; Day 0): 0
Score (mean±SD) (C57BL/6 mice; Day 10): 0.2±0.4
Score (mean±SD) (C57BL/6 mice; Day 13): 0.2±0.4
Score (mean±SD) (C57BL/6 mice; Day 16): 0.3±0.5
Score (mean±SD) (C57BL/6 mice; Day 20): 0.7±0.7
Score (mean±SD) (C57BL/6 mice; Day 23): 0.8±0.6
Score (mean±SD) (C57BL/6 mice; Day 27): 1.1±0.7
Score (mean±SD) (C57BL/6 mice; Day 32, ** P < 0.01 vs. vehicle control group): 1.9±0.7**
effect on hair growth (C57BL/6 mice; mice with telogen hair growth, 0.5 wt%, BID topically at 20 µL/cm^2, P < 0.01 from day 32): significant promoting effect on hair growth
AR antagonism (inhibition rate, %) (AR): 85.37^c %
signs of erythema, dehiscence, desquamation on the skin [1]: no signs of erythema, dehiscence, desquamation
Half-life T 1/2 in human whole blood [2]: 351.20 min
Half-life T 1/2 in CD-1 mouse whole blood [3]: 5.97 min
In vitro Clint [4]: 124.8 µL/min/mg protein
In vitro T1/2 [4]: 11.1 min
